From US12441732B2, “Potassium salt crystal form B of phosphodiesterase type 5 inhibitor, and preparation method and use therefor” (Guangzhou Huazhen Pharmaceutical Co., Ltd, priority 2019, dated 2025)
Like-named read-outs stand apart in the source and are kept apart here.

Key:
[1] = Dynamic vapor sorption (DVS) hygroscopicity test; format: physicochemical
Method: Dynamic vapor adsorption (DVS) experiments were performed at 25° C. on a DVS Intrinsic instrument from SMS (Surface Measurement Systems) to test hygroscopicity of the potassium salt anhydrous crystal form B prepared in Embodiment 1. The test sample was first dried at 0% relative humidity (RH) to remove the adsorbed solvent or water, and then the test was started with a target RH of 0-95%.

[2] = Dynamic solubility test in water, SGF, FaSSIF, FeSSIF at 37° C.; format: physicochemical; details: for solubility at 1 h / solubility at 4 h / solubility at 24 h: read-out: solubility (S)
[3] = Pharmacokinetic experiment in rats after gavage; format: in vivo; details: male SD rats, gavage 2 mg·kg^−1
Method: After 6 healthy male SD rats were fasted and drank water freely for 12 h, the rats was administered by gavage with the potassium salt crystal form B prepared in Embodiment 1 at 2 mg·kg^−1, and blood was taken from the Bulbus oculi venous plexus at 0.2 h, 0.5 h, 1 h, 1.5 h, 2 h, 4 h, 6 h and 8 h after administration. A solution of acetonitrile:water (1:1) was added, and centrifuging was conducted to take the supernatant for chromatographic analysis, at conditions: a chromatographic column: Thermo Fisher Hypersil gold column (3 μm, 20 mm×2.1 mm), an injection volume of 10 μL, a flow rate of 0.3 mL/min, a column temperature of 40° C., a mobile phase of water (1% formic acid) and methanol, gradient elution: methanol 10% (0 min); 10% (1 min); 90% (4 min); 90% (8 min); 10% (9 min), and with mass spectrometry conditions: multiple reaction monitoring (MRM), electrospray ionization (ESI), retention time (Dwell Time) of 200 ms, detection ion m/z 448.0-347.8. The data of blood drug concentration was analyzed with Winnolin6.3 software to obtain the pharmacokinetic parameters, thereby forming the mean blood drug concentration-time curve, as shown in FIG. 19.

PAH rats = assay: Penile erectile function observation in PAH rats; format: in vivo, SD rats
Method: After gavage treatment, penile erection in the animals was observed, wherein the time of penile erection phenomenon after gavage was recorded in each group.

UIRI model mice = assay: Unilateral renal ischemia-reperfusion mouse model (UIRI model) of renal fibrosis; format: in vivo, BALB/c mice; details: 5 mg·kg^−1·d^−1 gavage, 10 days
Excerpt: Fifteen male BALB/c mice were randomly divided into: a Sham group (a sham-operation group) including 5 mice, and a surgical modeling group including 10 mice. Surgical method: mice were anesthetized and incised on the left side of the abdomen to expose the kidney, and the renal pedicle was bluntly dissected. In the sham-operation group, the renal pedicle was only exposed without clamping; in the modeling group, the left kidney renal pedicle was clamped with a non-invasive miniature arterial clamp for 30 min, and the mice were placed on a thermostat plate at 37° C. to maintain a constant body temperature during the clamping period, and the surgical incision was covered with saline-impregnated gauze to prevent dehydration of the renal tissue. The arterial clamp was removed after 30 min, and it was observed that the kidney changed gradually from purple-black to bright red within 1 min, indicating successful blood reperfusion. The kidney was returned to its original position and the wound was sutured. The mice in the modeling group were randomly divided into 2 groups: a UIRI group (a model group) and a treatment group of the potassium salt crystal form B of WYQ (5 mg/kg), 5 mice in each group.
The first gavage administration was started 2 hours after the operation.
(2) treatment group of the potassium salt crystal form B of WYQ: the potassium salt crystal form B of WYQ was diluted into a 1 mg/ml solution with normal saline and administered by gavage at the dose of 5 mg·kg^−1·d^−1; and
administered once a day for consecutive 10 days.
On the 10th after operation, mice were anesthetized in the same way, the right dorsum was incised to expose the right kidney, and the renal pedicle was ligated before removing the right kidney. The mice in the sham-operation group were only stripped of the perirenal membrane without removing the right kidney. On the 11th after operation, all the mice were sacrificed, the abdominal cavity was opened, and the left kidney tissues of the mice were peeled off, caring to maintain the integrity of the kidney. After the kidney is taken out, the kidney is quickly transferred to pre-chilled PBS, and the kidney is cut for different tests. The kidney is divided into four parts with a scalpel, wherein the upper and lower ventral poles of the kidney were put into liquid nitrogen for extraction of protein and mRNA, and detection of changes in the expression amount of fibrosis-related factors proteins and genes. After 2 hours, the kidney tissue was transferred and stored in the refrigerator at −80° C. The dorsal side of the kidney was fixed in 4% paraformaldehyde for making paraffin sections. The morphological changes of the kidney tissue were observed by HE staining and Masson staining, and the changes of the expression of fibrosis marker proteins in the kidney tissues were observed by immunohistochemistry.

CCCCOC(=O)[N-]S(=O)(=O)c1cccc(-c2nc3c(CCC)nn(C)c3c(=O)[nH]2)c1.[K+] [potassium salt crystal form B]
crystal form before and after the DVS test (XRPD) ([1]; DVS 0-95% RH, 25° C.): did not change | change in mass (water adsorption amount) ([1]; DVS, 25° C./80% RH): 0.6% | hygroscopicity ([1]; DVS, 25° C./80% RH): slight hygroscopicity | crystal form change after XRPD assay (FC) ([2]; FaSSIF, 1 h): yes | pH ([2]; FaSSIF, 1 h): 6.8 | crystal form change after XRPD assay (FC) ([2]; FaSSIF, 4 h): yes | pH ([2]; FaSSIF, 4 h): 6.8 | crystal form change after XRPD assay (FC) ([2]; FaSSIF, 24 h): yes | pH ([2]; FaSSIF, 24 h): 6.8 | crystal form change after XRPD assay (FC) ([2]; FeSSIF, 1 h): yes | pH ([2]; FeSSIF, 1 h): 5.5 | crystal form change after XRPD assay (FC) ([2]; FeSSIF, 4 h): yes | pH ([2]; FeSSIF, 4 h): 5.5 | crystal form change after XRPD assay (FC) ([2]; FeSSIF, 24 h): yes | pH ([2]; FeSSIF, 24 h): 5.5 | crystal form change after XRPD assay (FC) ([2]; SGF, 1 h): yes | pH ([2]; SGF, 1 h): 7.5 | crystal form change after XRPD assay (FC) ([2]; SGF, 4 h): yes | pH ([2]; SGF, 4 h): 7.3 | crystal form change after XRPD assay (FC) ([2]; SGF, 24 h): yes | pH ([2]; SGF, 24 h): 7.7 | solubility at 1 h ([2]; fasted-state simulated intestinal fluid (FaSSIF), thermodynamic from solid, FaSSIF, 1 h): 10700 µg/mL | solubility at 4 h ([2]; fasted-state simulated intestinal fluid (FaSSIF), thermodynamic from solid, FaSSIF, 4 h): 9500 µg/mL | solubility at 24 h ([2]; fasted-state simulated intestinal fluid (FaSSIF), thermodynamic from solid, FaSSIF, 24 h): 9800 µg/mL | solubility at 1 h ([2]; fed-state simulated intestinal fluid (FeSSIF), thermodynamic from solid, FeSSIF, 1 h): 400 µg/mL | solubility at 4 h ([2]; fed-state simulated intestinal fluid (FeSSIF), thermodynamic from solid, FeSSIF, 4 h): 430 µg/mL | solubility at 24 h ([2]; fed-state simulated intestinal fluid (FeSSIF), thermodynamic from solid, FeSSIF, 24 h): 430 µg/mL | solubility at 1 h ([2]; simulated gastric fluid (SGF), simulated gastric fluid, thermodynamic from solid, SGF, 1 h): 6800 µg/mL | solubility at 4 h ([2]; simulated gastric fluid (SGF), simulated gastric fluid, thermodynamic from solid, SGF, 4 h): 7000 µg/mL | solubility at 24 h ([2]; simulated gastric fluid (SGF), simulated gastric fluid, thermodynamic from solid, SGF, 24 h): 7700 µg/mL | solubility at 1 h ([2]; thermodynamic from solid, water, 1 h): 12500 µg/mL | solubility at 4 h ([2]; thermodynamic from solid, water, 4 h): 13100 µg/mL | solubility at 24 h ([2]; thermodynamic from solid, water, 24 h): 12900 µg/mL | solubility ([2]; thermodynamic from solid, water, read-out: solubility in water (the highest)): ≤ 12900 µg/mL | crystal form change after XRPD assay (FC) ([2]; water, 1 h): weak | pH ([2]; water, 1 h): 7.6 | crystal form change after XRPD assay (FC) ([2]; water, 4 h): weak | pH ([2]; water, 4 h): 7.4 | crystal form change after XRPD assay (FC) ([2]; water, 24 h): weak | pH ([2]; water, 24 h): 7.4 | time at which the peak drug concentration was reached [3]: 0.63 ± 0.12 h | AUC(0-t) ([3]; rat, blood, po, read-out: AUC(0-4) within 8 h after administration): 639 ± 72.4 ng·h/mL | Cmax ([3]; rat, blood, po, read-out: maximum drug concentration (Cmax)): 334 ± 23.7 ng/mL | half-life ([3]; rat, blood, po, read-out: oral half-life (t112) (converted)): 2.3 ± 0.27 h | AUC(0-inf) ([3]; rat, blood, po, read-out: total area under the mean blood drug concentration-time curve AUC0-∞): 650 ± 70.8 ng·h/mL | rats showing penile erection (PAH rats; high-dose 20 mg·kg^−1d^−1, over 40 min after gavage): 80% | rats showing penile erection (PAH rats; low-dose 5 mg·kg^−1d^−1, over 1 h after gavage): 50% | rats showing penile erection (PAH rats; medium-dose 10 mg·kg^−1d^−1, over 1 h after gavage): 80% | rats showing penile erection (PAH rats; mini-dose 2 mg·kg^−1d^−1, over 1 h after gavage): 30% | Collagen I protein expression in kidney tissue (Western Blot) vs UIRI model (UIRI model mice): significantly reduced | FN1 protein expression in kidney tissue (Western Blot) vs UIRI model (UIRI model mice): significantly reduced | FN1 protein expression level in renal fibrotic lesions (immunohistochemistry) (UIRI model mice): significantly reduced | PAI-1 protein expression in kidney tissue (Western Blot) vs UIRI model (UIRI model mice): significantly reduced | α-SMA protein expression in kidney tissue (Western Blot) vs UIRI model (UIRI model mice): significantly reduced | α-SMA protein expression level in renal fibrotic lesions (immunohistochemistry) (UIRI model mice): significantly reduced | extracellular matrix deposition in the kidneys (UIRI model mice; HE/Masson staining): decreased | inflammatory cell infiltration in the kidneys (UIRI model mice; HE/Masson staining): significantly reduced
